Test results reported in patent US20260007634A1, “PHARMACEUTICAL COMPOSITIONS FOR THE TREATMENT OF ALLERGIC DISEASES” (KINKI UNIVERSITY, priority 2022, published 2026).

Key:
Format in all cases: in vivo, mouse
IgE antibody [1] = test: Serum IgE antibody ELISA, allergic rhinitis mice; settings: OVA allergic rhinitis; serum day 28; oral 10 mg/kg (dexamethasone 2 mg/kg); control 58, vehicle 111
Procedure: (§1) A 0.2 mL dose of 50 μg ovalbumin (OVA) and 2 mg Alum mixture was administered to 6-week-old female Balb/c mice (Japan SLC Inc.) (day 0 of the example). Alum was used as an adjuvant. Seven days later and 14 days later, the Balb/c mice were immunized again with 0.2 mL injections of the above mixture. Starting on day 20, mice were orally treated with 10 mg/kg of norathyriol, 10 mg/kg of mangiferin 8a, 10 mg/kg of tofacitinib (JAK inhibitor), 2 mg/kg of dexamethasone (steroid) and 10 mg/kg of olopatadine (antihistamine) daily for 8 consecutive days. Starting on day 21, 400 μg OVA was administered intranasally, and nose-scratching behavior was measured on day 27. Note that tofacitinib, dexamethasone, and olopatadine are currently in clinical use in allergic rhinitis and were used as control drugs in this example.
Serum was collected from day 28 mice in Examples 6 and 7, and IgE antibody production was measured by enzyme-linked immunosorbent assay (ELISA). This assay was performed using a mouse IgE antibody ELISA kit (R&D).

IL-4 = test: Serum IL-4 ELISA, allergic rhinitis mice; settings: OVA allergic rhinitis; serum day 28; oral 10 mg/kg (dexamethasone 2 mg/kg); control 227, vehicle 872
Procedure: as §1
Serum was collected from day 28 mice in Examples 6 and 7, and IL-4 production was measured by enzyme-linked immunosorbent assay (ELISA). This assay was performed using a mouse IL-4 ELISA kit (R&D).

IgE antibody [2] = test: Serum IgE antibody ELISA, bronchial asthma mice; settings: OVA bronchial asthma; serum day 28; oral 10 mg/kg (dexamethasone 2 mg/kg); control 73, vehicle 117
Procedure: as §1, with “cough” for “nose-scratching behavior”
Serum was collected from day 28 mice in Examples 14, and IgE antibody production was measured by enzyme-linked immunosorbent assay (ELISA). This assay was performed using a mouse IgE antibody ELISA kit (R&D).

OVA-IgE antibody = test: Serum OVA-IgE antibody ELISA, food allergy mice; settings: serum day 28, oral 10 mg/kg (dexamethasone 2 mg/kg), control 1.5, vehicle 74
Procedure: A 0.2 mL dose of 10 μg ovalbumin (OVA) and 1 mg Alum mixture was administered to 6-week-old female Balb/c mice (Japan SLC Inc.) (day 0 of the example). Alum was used as an adjuvant. Seven days later, the Balb/c mice were immunized again with a 0.2 mL injection of the above mixture. Starting on day 14, mice were orally treated with 10 mg/kg of norathyriol, 10 mg/kg of mangiferin 8a, 10 mg/kg of tofacitinib (JAK inhibitor), 2 mg/kg of dexamethasone (steroid) and 10 mg/kg of olopatadine (antihistamine) daily for 14 consecutive days. Starting on day 14, 10 mg OVA was administered orally every other day […], and the frequency of diarrhea was measured after the final administration on day 28. Note that tofacitinib, dexamethasone, and olopatadine are currently in clinical use in food allergy and were used as control drugs in this example.
Serum was collected from day 28 mice in Examples 21, and OVA-IgE antibody production was measured by enzyme-linked immunosorbent assay (ELISA). This assay was performed using a mouse OVA-IgE antibody ELISAkit (FUJIFILM Wako).

IgE antibody [3] = test: Serum IgE antibody ELISA, cedar pollinosis mice; settings: serum day 28, oral 10 mg/kg (dexamethasone 2 mg/kg), control 71, vehicle 207
Procedure: as §1, with “of 100” for “of 50”, “μg cedar pollen” for “μg ovalbumin (OVA)”, “and 1” for “and 2”, “21, 500” for “21, 400”, “μg cedar pollen” for “μg OVA”, “in cedar pollinosis” for “in allergic rhinitis”
Serum was collected from day 28 mice in Examples 28 and 29, and IgE antibody production was measured by enzyme-linked immunosorbent assay (ELISA). This assay was performed using a mouse IgE antibody ELISA kit (R&D).

IL-5 = test: Serum IL-5 ELISA, cedar pollinosis mice; settings: serum day 28, oral 10 mg/kg (dexamethasone 2 mg/kg), control 77, vehicle 708
Procedure: as §1, with “of 100” for “of 50”, “μg cedar pollen” for “μg ovalbumin (OVA)”, “and 1” for “and 2”, “21, 500” for “21, 400”, “μg cedar pollen” for “μg OVA”, “in cedar pollinosis” for “in allergic rhinitis”
Serum was collected from day 28 mice in Examples 28 and 29, and IL-5 production was measured by enzyme-linked immunosorbent assay (ELISA). This assay was performed using a mouse IL-5 ELISA kit (R&D).

[4] = system: Balb/c mice with ovalbumin-induced allergic rhinitis; test: Nose scratching behavior, ovalbumin-induced allergic rhinitis mice; settings: OVA allergic rhinitis; oral daily 8 days from day 20, 10 mg/kg (dexamethasone 2 mg/kg); measured day 27; vs vehicle group
Procedure: as §1
(§2) The group that was just immunized with OVA is called the subject group, the one that received norathyriol is called the norathyriol group, the one that received mangiferin 8a is called the mangiferin 8a group, the one that received tofacitinib is called the tofacitinib group, the one that received dexamethasone is called the dexamethasone group, and the one that received olopatadine is called the olopatadine group. Each group consisted of five animals.

[5] = system: Balb/c mice with cedar pollinosis; test: Nose scratching behavior, cedar pollinosis model mice; settings: oral daily 8 days from day 20, 10 mg/kg (dexamethasone 2 mg/kg), measured day 27, vs vehicle group
Procedure: as §1, with “of 100” for “of 50”, “μg cedar pollen” for “μg ovalbumin (OVA)”, “and 1” for “and 2”, “21, 500” for “21, 400”, “μg cedar pollen” for “μg OVA”, “in cedar pollinosis” for “in allergic rhinitis”
as §2, with “cedar pollen” for “OVA”

Row | Compound | amount of IgE antibody (IgE antibody [1]) | amount of IL-4 (IL-4) | amount of IgE antibody (IgE antibody [2]) | amount of OVA-IgE antibody (OVA-IgE antibody) | amount of IgE antibody (IgE antibody [3]) | amount of IL-5 (IL-5) | number of nose scratches [4] | number of nose scratches [5]
1 | C[C@@H]1C[C@H]2[C@@H]3CCC4=CC(=O)C=C[C@]4(C)[C@@]3(F)[C@@H](O)C[C@]2(C)[C@@]1(O)C(=O)CO [dexamethasone] | 40 ng/mL | 336 pg/mL | 34 ng/mL | 21 U/mL | 154 ng/mL | 182 pg/mL |  | 
2 | O=c1c2cc(O)c(O)cc2oc2cc(O)cc(O)c12 [norathyriol, 1,3,6,7-tetrahydroxyxanthone] | 77 ng/mL | 495 pg/mL | 88 ng/mL | 45 U/mL | 156 ng/mL | 307 pg/mL | significantly decreased the number of nose scratches | significantly decreased the number of nose scratches
3 | C[C@@H]1CCN(C(=O)CC#N)C[C@@H]1N(C)c1ncnc2[nH]ccc12 [tofacitinib] | 94 ng/mL | 808 pg/mL | 101 ng/mL | 61 U/mL | 185 ng/mL | 428 pg/mL | significantly decreased the number of nose scratches | significantly decreased the number of nose scratches
4 | CN(C)CC/C=C1/c2ccccc2COc2ccc(CC(=O)O)cc21 [olopatadine] | 118 ng/mL | 717 pg/mL | 126 ng/mL | 68 U/mL | 218 ng/mL | 438 pg/mL | significantly decreased the number of nose scratches | significantly decreased the number of nose scratches
